Test results as given in patent publication US6689773B2, “Uracil substituted phenyl sulfamoyl carboxamides” (BASF Aktiengesellschaft, priority 2000, dated 2004).

How the values were obtained:
Assay type in all cases: in vivo
[1] = test system: ABUTH, Velvetleaf, Abutilon theophrasti, Medic.; experiment: Postemergence herbicidal evaluation (Example 147); settings: rating scale 0-9, two to three weeks after treatment
Procedure, shortened: (§1)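 Plants at about two weeks from sowing received a foliar spray of test compound equivalent to roughly 0.016 to 0.032 kg per hectare. The carrier was 80/20 acetone/water containing 1.0% methylated seed oil. Injury was scored on a 0-9 visual scale two to three weeks later.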

[2] = test system: ALOMY, Blackgrass, Alopecurus myosuroides; experiment: Postemergence herbicidal evaluation (Example 147); settings: rating scale 0-9, two to three weeks after treatment
Procedure, shortened: as §1

[3] = test system: AMBEL, Ragweed, Common, Ambrosia artemiisifolia, L.; experiment: Postemergence herbicidal evaluation (Example 147); settings: rating scale 0-9, two to three weeks after treatment
Procedure, shortened: as §1

[4] = test system: CHEAL, Lambsquarters, Chenopodium album, L. Common; experiment: Postemergence herbicidal evaluation (Example 147); settings: rating scale 0-9, two to three weeks after treatment
Procedure, shortened: as §1

[5] = test system: DIGSA, Crabgrass, (Hairy) L, Digitaria sanguinalis, (L)Scop; experiment: Postemergence herbicidal evaluation (Example 147); settings: rating scale 0-9, two to three weeks after treatment
Procedure, shortened: as §1

[6] = test system: ECHCG, Barnyardgrass, Echinochloa crusgalli, (L.)Beau; experiment: Postemergence herbicidal evaluation (Example 147); settings: rating scale 0-9, two to three weeks after treatment
Procedure, shortened: as §1

[7] = test system: GLXMA, Soybean, Glycine max, (L.) Merr.; experiment: Postemergence herbicidal evaluation (Example 147); settings: rating scale 0-9, two to three weeks after treatment
Procedure, shortened: as §1

[8] = test system: IPOHE, Morningglory, Ivyleaf, Ipomoea hederacea, (L)Jacq.; experiment: Postemergence herbicidal evaluation (Example 147); settings: rating scale 0-9, two to three weeks after treatment
Procedure, shortened: as §1

[9] = test system: SETVI, Green foxtail, Setaria viridis, (L.)Beau; experiment: Postemergence herbicidal evaluation (Example 147); settings: rating scale 0-9, two to three weeks after treatment
Procedure, shortened: as §1

[10] = test system: TRZAW, Winter wheat, Tritium Aestivum, L. (Winter); experiment: Postemergence herbicidal evaluation (Example 147); settings: rating scale 0-9, two to three weeks after treatment
Procedure, shortened: as §1

[11] = test system: XANST, Cocklebur, Xanthium strumariam; experiment: Postemergence herbicidal evaluation (Example 147); settings: rating scale 0-9, two to three weeks after treatment
Procedure, shortened: as §1

[12] = test system: ZEAMX, Field corn, Zea mays L.; experiment: Postemergence herbicidal evaluation (Example 147); settings: rating scale 0-9, two to three weeks after treatment
Procedure, shortened: as §1

[13] = test system: ABUTH, Velvetleaf, Abutilon theophrasti, Medic.; experiment: Preemergence herbicidal evaluation (Example 148); settings: rating scale 0-9, two to four weeks after treatment
Procedure, shortened: (§2)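 Preemergence greenhouse test: seeds in potting soil, cups sprayed immediately after planting at ~0.125–0.250 kg/ha; plant appearance scored visually versus control 2–4 weeks on.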

[14] = test system: ALOMY, Blackgrass, Alopecurus myosuroides; experiment: Preemergence herbicidal evaluation (Example 148); settings: rating scale 0-9, two to four weeks after treatment
Procedure, shortened: as §2

[15] = test system: AMBEL, Ragweed, Common, Ambrosia artemiisifolia, L.; experiment: Preemergence herbicidal evaluation (Example 148); settings: rating scale 0-9, two to four weeks after treatment
Procedure, shortened: as §2

[16] = test system: CHEAL, Lambsquarters, Chenopodium album, L. Common; experiment: Preemergence herbicidal evaluation (Example 148); settings: rating scale 0-9, two to four weeks after treatment
Procedure, shortened: as §2

[17] = test system: DIGSA, Crabgrass, (Hairy) L, Digitaria sanguinalis, (L)Scop; experiment: Preemergence herbicidal evaluation (Example 148); settings: rating scale 0-9, two to four weeks after treatment
Procedure, shortened: as §2

[18] = test system: ECHCG, Barnyardgrass, Echinochloa crusgalli, (L.)Beau; experiment: Preemergence herbicidal evaluation (Example 148); settings: rating scale 0-9, two to four weeks after treatment
Procedure, shortened: as §2

[19] = test system: GLXMA, Soybean, Glycine max, (L.) Merr.; experiment: Preemergence herbicidal evaluation (Example 148); settings: rating scale 0-9, two to four weeks after treatment
Procedure, shortened: as §2

[20] = test system: IPOHE, Morningglory, Ivyleaf, Ipomoea hederacea, (L)Jacq.; experiment: Preemergence herbicidal evaluation (Example 148); settings: rating scale 0-9, two to four weeks after treatment
Procedure, shortened: as §2

[21] = test system: SETVI, Green foxtail, Setaria viridis, (L.)Beau; experiment: Preemergence herbicidal evaluation (Example 148); settings: rating scale 0-9, two to four weeks after treatment
Procedure, shortened: as §2

[22] = test system: TRZAW, Winter wheat, Tritium Aestivum, L. (Winter); experiment: Preemergence herbicidal evaluation (Example 148); settings: rating scale 0-9, two to four weeks after treatment
Procedure, shortened: as §2

[23] = test system: XANST, Cocklebur, Xanthium strumariam; experiment: Preemergence herbicidal evaluation (Example 148); settings: rating scale 0-9, two to four weeks after treatment
Procedure, shortened: as §2

[24] = test system: ZEAMX, Field corn, Zea mays L.; experiment: Preemergence herbicidal evaluation (Example 148); settings: rating scale 0-9, two to four weeks after treatment
Procedure, shortened: as §2

With CCCN(CC)S(=O)(=O)NC(=O)c1cc(-n2c(=O)cc(C(F)(F)F)n(C)c2=O)c(F)cc1Cl [Example 62] the “Postemergence herbicidal rating ABUTH” value ([1]; rate 0.016 kg/ha) was 9.0, the “Postemergence herbicidal rating ABUTH” value ([1]; rate 0.032 kg/ha) was 9.0 and the “Postemergence herbicidal rating ALMOY” value ([2]; rate 0.016 kg/ha) was 2.0. The “Postemergence herbicidal rating ALMOY” value ([2]; rate 0.032 kg/ha) was 2.0, the “Postemergence herbicidal rating AMBEL” value ([3]; rate 0.016 kg/ha) was 9.0 and the “Postemergence herbicidal rating AMBEL” value ([3]; rate 0.032 kg/ha) was 9.0. The “Postemergence herbicidal rating CHEAL” value ([4]; rate 0.016 kg/ha) was 7.0, the “Postemergence herbicidal rating CHEAL” value ([4]; rate 0.032 kg/ha) was 8.0 and the “Postemergence herbicidal rating DIGSA” value ([5]; rate 0.016 kg/ha) was 5.0. For the same molecule, the “Postemergence herbicidal rating DIGSA” value ([5]; rate 0.032 kg/ha) was 5.0, the “Postemergence herbicidal rating ECHCG” value ([6]; rate 0.016 kg/ha) was 6.0 and the “Postemergence herbicidal rating ECHCG” value ([6]; rate 0.032 kg/ha) was 7.0. The “Postemergence herbicidal rating GLXMA” value ([7]; rate 0.016 kg/ha) was 8.0, the “Postemergence herbicidal rating GLXMA” value ([7]; rate 0.032 kg/ha) was 8.0 and the “Postemergence herbicidal rating IPOHE” value ([8]; rate 0.016 kg/ha) was 9.0. For the same molecule, the “Postemergence herbicidal rating IPOHE” value ([8]; rate 0.032 kg/ha) was 9.0, the “Postemergence herbicidal rating SETVI” value ([9]; rate 0.016 kg/ha) was 6.0 and the “Postemergence herbicidal rating SETVI” value ([9]; rate 0.032 kg/ha) was 6.0. The “Postemergence herbicidal rating TRZAW” value ([10]; rate 0.016 kg/ha) was 5.5, the “Postemergence herbicidal rating TRZAW” value ([10]; rate 0.032 kg/ha) was 6.5 and the “Postemergence herbicidal rating XANST” value ([11]; rate 0.016 kg/ha) was 9.0. For the same molecule, the “Postemergence herbicidal rating XANST” value ([11]; rate 0.032 kg/ha) was 9.0, the “Postemergence herbicidal rating ZEAMX” value ([12]; rate 0.016 kg/ha) was 6.5 and the “Postemergence herbicidal rating ZEAMX” value ([12]; rate 0.032 kg/ha) was 6.5. The “Preemergence herbicidal rating ABUTH” value ([13]; rate 0.125 kg/ha) was 9.0, the “Preemergence herbicidal rating ABUTH” value ([13]; rate 0.25 kg/ha) was 9.0 and the “Preemergence herbicidal rating ALMOY” value ([14]; rate 0.125 kg/ha) was 0.0. For the same molecule, the “Preemergence herbicidal rating ALMOY” value ([14]; rate 0.25 kg/ha) was 0.0, the “Preemergence herbicidal rating AMBEL” value ([15]; rate 0.125 kg/ha) was 9.0 and the “Preemergence herbicidal rating AMBEL” value ([15]; rate 0.25 kg/ha) was 9.0. The “Preemergence herbicidal rating CHEAL” value ([16]; rate 0.125 kg/ha) was 9.0, the “Preemergence herbicidal rating CHEAL” value ([16]; rate 0.25 kg/ha) was 9.0 and the “Preemergence herbicidal rating DIGSA” value ([17]; rate 0.125 kg/ha) was 5.0. The “Preemergence herbicidal rating DIGSA” value ([17]; rate 0.25 kg/ha) was 7.0, the “Preemergence herbicidal rating ECHCG” value ([18]; rate 0.125 kg/ha) was 3.0 and the “Preemergence herbicidal rating ECHCG” value ([18]; rate 0.25 kg/ha) was 6.0. The “Preemergence herbicidal rating GLXMA” value ([19]; rate 0.125 kg/ha) was 5.0, the “Preemergence herbicidal rating GLXMA” value ([19]; rate 0.25 kg/ha) was 9.0 and the “Preemergence herbicidal rating IPOHE” value ([20]; rate 0.125 kg/ha) was 9.0. For the same molecule, the “Preemergence herbicidal rating IPOHE” value ([20]; rate 0.25 kg/ha) was 9.0, the “Preemergence herbicidal rating SETVI” value ([21]; rate 0.125 kg/ha) was 3.0 and the “Preemergence herbicidal rating SETVI” value ([21]; rate 0.25 kg/ha) was 7.0. The “Preemergence herbicidal rating TRZAW” value ([22]; rate 0.125 kg/ha) was 3.0, the “Preemergence herbicidal rating TRZAW” value ([22]; rate 0.25 kg/ha) was 5.0 and the “Preemergence herbicidal rating XANST” value ([23]; rate 0.125 kg/ha) was 9.0. For the same molecule, the “Preemergence herbicidal rating XANST” value ([23]; rate 0.25 kg/ha) was 9.0, the “Preemergence herbicidal rating ZEAMX” value ([24]; rate 0.125 kg/ha) was 1.0 and the “Preemergence herbicidal rating ZEAMX” value ([24]; rate 0.25 kg/ha) was 1.0.
Cn1c(C(F)(F)F)cc(=O)n(-c2cc(C(=O)NS(=O)(=O)NCc3cccs3)c(Cl)cc2F)c1=O [Example 77] was tested, and the “Postemergence herbicidal rating ABUTH” value ([1]; rate 0.016 kg/ha) was 9.0, the “Postemergence herbicidal rating ABUTH” value ([1]; rate 0.032 kg/ha) was 9.0 and the “Postemergence herbicidal rating ALMOY” value ([2]; rate 0.016 kg/ha) was 1.0. The “Postemergence herbicidal rating ALMOY” value ([2]; rate 0.032 kg/ha) was 1.0, the “Postemergence herbicidal rating AMBEL” value ([3]; rate 0.016 kg/ha) was 8.0 and the “Postemergence herbicidal rating AMBEL” value ([3]; rate 0.032 kg/ha) was 8.0. The “Postemergence herbicidal rating CHEAL” value ([4]; rate 0.016 kg/ha) was 6.0, the “Postemergence herbicidal rating CHEAL” value ([4]; rate 0.032 kg/ha) was 7.0 and the “Postemergence herbicidal rating DIGSA” value ([5]; rate 0.016 kg/ha) was 4.0. For the same molecule, the “Postemergence herbicidal rating DIGSA” value ([5]; rate 0.032 kg/ha) was 4.0, the “Postemergence herbicidal rating ECHCG” value ([6]; rate 0.016 kg/ha) was 4.0 and the “Postemergence herbicidal rating ECHCG” value ([6]; rate 0.032 kg/ha) was 6.0. The “Postemergence herbicidal rating GLXMA” value ([7]; rate 0.016 kg/ha) was 7.5, the “Postemergence herbicidal rating GLXMA” value ([7]; rate 0.032 kg/ha) was 7.5 and the “Postemergence herbicidal rating IPOHE” value ([8]; rate 0.016 kg/ha) was 9.0. For the same molecule, the “Postemergence herbicidal rating IPOHE” value ([8]; rate 0.032 kg/ha) was 9.0, the “Postemergence herbicidal rating SETVI” value ([9]; rate 0.016 kg/ha) was 5.0 and the “Postemergence herbicidal rating SETVI” value ([9]; rate 0.032 kg/ha) was 6.0. The “Postemergence herbicidal rating TRZAW” value ([10]; rate 0.016 kg/ha) was 4.5, the “Postemergence herbicidal rating TRZAW” value ([10]; rate 0.032 kg/ha) was 5.0 and the “Postemergence herbicidal rating XANST” value ([11]; rate 0.016 kg/ha) was 9.0. For the same molecule, the “Postemergence herbicidal rating XANST” value ([11]; rate 0.032 kg/ha) was 9.0, the “Postemergence herbicidal rating ZEAMX” value ([12]; rate 0.016 kg/ha) was 6.0 and the “Postemergence herbicidal rating ZEAMX” value ([12]; rate 0.032 kg/ha) was 6.5. For the same molecule, the “Preemergence herbicidal rating ABUTH” value ([13]; rate 0.125 kg/ha) was 9.0, the “Preemergence herbicidal rating ABUTH” value ([13]; rate 0.25 kg/ha) was 9.0 and the “Preemergence herbicidal rating ALMOY” value ([14]; rate 0.125 kg/ha) was 0.0. The “Preemergence herbicidal rating ALMOY” value ([14]; rate 0.25 kg/ha) was 0.0, the “Preemergence herbicidal rating AMBEL” value ([15]; rate 0.125 kg/ha) was 9.0 and the “Preemergence herbicidal rating AMBEL” value ([15]; rate 0.25 kg/ha) was 9.0. The “Preemergence herbicidal rating CHEAL” value ([16]; rate 0.125 kg/ha) was 9.0, the “Preemergence herbicidal rating CHEAL” value ([16]; rate 0.25 kg/ha) was 9.0 and the “Preemergence herbicidal rating DIGSA” value ([17]; rate 0.125 kg/ha) was 2.0. For the same molecule, the “Preemergence herbicidal rating DIGSA” value ([17]; rate 0.25 kg/ha) was 4.0, the “Preemergence herbicidal rating ECHCG” value ([18]; rate 0.125 kg/ha) was 2.0 and the “Preemergence herbicidal rating ECHCG” value ([18]; rate 0.25 kg/ha) was 3.0. The “Preemergence herbicidal rating GLXMA” value ([19]; rate 0.125 kg/ha) was 1.0, the “Preemergence herbicidal rating IPOHE” value ([20]; rate 0.125 kg/ha) was 7.0 and the “Preemergence herbicidal rating IPOHE” value ([20]; rate 0.25 kg/ha) was 9.0. For the same molecule, the “Preemergence herbicidal rating SETVI” value ([21]; rate 0.125 kg/ha) was 2.0, the “Preemergence herbicidal rating SETVI” value ([21]; rate 0.25 kg/ha) was 2.0 and the “Preemergence herbicidal rating TRZAW” value ([22]; rate 0.125 kg/ha) was 0.0. The “Preemergence herbicidal rating TRZAW” value ([22]; rate 0.25 kg/ha) was 0.0, the “Preemergence herbicidal rating XANST” value ([23]; rate 0.125 kg/ha) was 3.0 and the “Preemergence herbicidal rating XANST” value ([23]; rate 0.25 kg/ha) was 8.0. For the same molecule, the “Preemergence herbicidal rating ZEAMX” value ([24]; rate 0.125 kg/ha) was 0.0 and the “Preemergence herbicidal rating ZEAMX” value ([24]; rate 0.25 kg/ha) was 1.0.
